The target of experiment [1] is T1, Delta-type opioid receptor (Homo sapiens, UniProt P41143). In words: Ability to displace [3H]DPDPE from human recombinant Opioid receptor delta 1 in CHO cells. Format: cell-based.
The target of experiment [2] is T2, Mu-type opioid receptor (Homo sapiens, UniProt P35372). The experiment can be described thus: Ability to displace [3H]DAMGO from human recombinant Opioid receptor mu 1 in CHO cells. Format: cell-based.
Experiment [3] deals with T3, Kappa-type opioid receptor (Homo sapiens, UniProt P41145). Format: cell-based, CHO.
T3 sequence (P41145 whole entry): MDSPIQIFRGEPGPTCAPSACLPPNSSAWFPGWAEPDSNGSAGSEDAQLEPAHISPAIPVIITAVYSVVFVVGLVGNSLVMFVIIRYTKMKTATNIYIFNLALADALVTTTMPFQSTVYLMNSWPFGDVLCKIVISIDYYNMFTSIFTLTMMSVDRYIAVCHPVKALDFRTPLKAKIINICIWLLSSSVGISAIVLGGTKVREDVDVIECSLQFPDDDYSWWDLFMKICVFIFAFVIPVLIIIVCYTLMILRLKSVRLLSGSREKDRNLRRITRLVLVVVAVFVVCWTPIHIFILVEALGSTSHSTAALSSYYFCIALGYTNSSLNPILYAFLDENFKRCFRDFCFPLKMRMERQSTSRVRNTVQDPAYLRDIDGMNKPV
Description: Ability to displace [3H]U-69593 from human recombinant Opioid receptor kappa 1 in CHO cells
Experiment [4] has as its target T1, Delta-type opioid receptor. The note with it: CHO.
Description: Ability to displace DPDPE from human recombinant Opioid receptor delta 1 in CHO cells using [35S]- GTP-gamma S Assay
Experiment [5] deals with T3, Kappa-type opioid receptor. The settings on record: CHO.
Description: Ability to displace U-69,593 from human recombinant Opioid receptor kappa 1 in CHO cells using [35S]- GTP-gamma S Assay
Experiment [6] deals with T2, Mu-type opioid receptor. The note with it: CHO.
Description: Ability to displace DAMGO from human recombinant Opioid receptor mu 1 in CHO cells using [35S]- GTP-gamma S Assay

pKi: −log10 of the molar value.

T1 sequence (P41143 whole entry): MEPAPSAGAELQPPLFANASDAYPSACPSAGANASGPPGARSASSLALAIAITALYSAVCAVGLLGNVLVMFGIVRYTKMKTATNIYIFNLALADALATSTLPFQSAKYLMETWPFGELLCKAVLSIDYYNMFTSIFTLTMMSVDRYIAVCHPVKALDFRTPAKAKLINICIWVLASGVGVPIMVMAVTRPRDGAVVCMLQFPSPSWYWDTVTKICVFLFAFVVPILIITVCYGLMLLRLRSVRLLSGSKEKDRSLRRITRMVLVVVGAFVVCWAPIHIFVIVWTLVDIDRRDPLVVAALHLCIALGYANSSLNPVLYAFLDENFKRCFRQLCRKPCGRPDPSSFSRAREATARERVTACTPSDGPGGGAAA
T2 sequence (P35372 whole entry): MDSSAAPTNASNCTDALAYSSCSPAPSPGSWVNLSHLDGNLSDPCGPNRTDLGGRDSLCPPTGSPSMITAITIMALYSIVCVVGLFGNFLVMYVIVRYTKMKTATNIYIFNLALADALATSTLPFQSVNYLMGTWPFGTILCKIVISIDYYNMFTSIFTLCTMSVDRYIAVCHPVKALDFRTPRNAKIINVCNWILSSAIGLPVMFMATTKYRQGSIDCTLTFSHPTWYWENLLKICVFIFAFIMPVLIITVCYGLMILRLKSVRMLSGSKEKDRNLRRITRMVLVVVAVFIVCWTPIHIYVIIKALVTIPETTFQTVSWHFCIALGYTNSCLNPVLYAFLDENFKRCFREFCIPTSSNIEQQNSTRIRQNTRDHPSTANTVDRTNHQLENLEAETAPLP

As for `CCCCCCCNC(=O)c1ccc2[nH]c3c(c2c1)C[C@@]1(O)C2Cc4ccc(O)c5c4[C@@]1(CCN2CC1CC1)[C@H]3O5`, the figures for the pKi (in experiment [1]; at Mu-type opioid receptor [2]; in experiment [3]) were 7.15, 7.21 and 7.66, respectively. Besides, the Ke is 6.95 nM in experiment [4], 0.29 nM in experiment [5] and 6.86 nM at Mu-type opioid receptor [6].

In the case of `CCC(=N)NCCc1ccc2[nH]c3c(c2c1)C[C@@]1(O)C2Cc4ccc(O)c5c4[C@@]1(CCN2CC1CC1)[C@H]3O5`, the figures for the pKi (in experiment [1]; on Mu-type opioid receptor [2]; in experiment [3]) were 7.66, 7.58 and 9.55, respectively. Further, the Ke worked out at 1.77 nM in experiment [4], 0.24 nM in experiment [5] and 4.7 nM on Mu-type opioid receptor [6].

As to `CCCCC(=N)NCCc1ccc2[nH]c3c(c2c1)C[C@@]1(O)C2Cc4ccc(O)c5c4[C@@]1(CCN2CC1CC1)[C@H]3O5`, the pKi in experiment [1] was 7.42; at Mu-type opioid receptor [2], 6.66; in experiment [3] it was 9.52. Besides, the Ke in experiment [4] was determined as 3.31 nM; in experiment [5], 0.17 nM; at Mu-type opioid receptor [6], 5.33 nM.

`CCCCC(=O)NCCc1ccc2[nH]c3c(c2c1)C[C@@]1(O)C2Cc4ccc(O)c5c4[C@@]1(CCN2CC1CC1)[C@H]3O5`: the pKi is 8.12 in experiment [1], 7.50 at Mu-type opioid receptor [2] and 9.17 in experiment [3]. Moreover, the Ke in experiment [4] amounted to 0.23 nM; in experiment [5] it was 0.46 nM; at Mu-type opioid receptor [6], 3.37 nM.

For `CCCC(=O)NCCc1ccc2[nH]c3c(c2c1)C[C@@]1(O)C2Cc4ccc(O)c5c4[C@@]1(CCN2CC1CC1)[C@H]3O5`, the pKi in experiment [1] was 8.43; at Mu-type opioid receptor [2] it was 7.51; in experiment [3], 9.07. Moreover, the Ke turned out to be 0.3 nM in experiment [4], 0.35 nM in experiment [5] and 3.17 nM at Mu-type opioid receptor [6].

Consider `CCCCCCCNC(=N)Cc1ccc2[nH]c3c(c2c1)C[C@@]1(O)C2Cc4ccc(O)c5c4[C@@]1(CCN2CC1CC1)[C@H]3O5`, for which the pKi in experiment [1] was 8.13; at Mu-type opioid receptor [2], 7.25; in experiment [3] it was 8.25.

With `CCC(=O)NCCc1ccc2[nH]c3c(c2c1)C[C@@]1(O)C2Cc4ccc(O)c5c4[C@@]1(CCN2CC1CC1)[C@H]3O5`, the values for the pKi (in experiment [1]; on Mu-type opioid receptor [2]; in experiment [3]) were 8.51, 7.64 and 8.80, respectively. The Ke was 0.38 nM in experiment [4], 0.48 nM in experiment [5] and 4.94 nM on Mu-type opioid receptor [6].

In the case of `COc1ccc(CNC(=O)c2ccc3[nH]c4c(c3c2)C[C@@]2(O)C3Cc5ccc(O)c6c5[C@@]2(CCN3CC2CC2)[C@H]4O6)cc1`, the pKi in experiment [1] was 8.13; at Mu-type opioid receptor [2] it was 8.33; in experiment [3], 8.68. Also, the Ke was 6.2 nM in experiment [4], 0.28 nM in experiment [5] and 0.94 nM at Mu-type opioid receptor [6].

Consider `CCCNC(=N)Cc1ccc2[nH]c3c(c2c1)C[C@@]1(O)C2Cc4ccc(O)c5c4[C@@]1(CCN2CC1CC1)[C@H]3O5`, for which the pKi in experiment [1] was 8.28; on Mu-type opioid receptor [2] it was 7.87; in experiment [3] it was 8.80.

In the case of `O=C(NCc1ccccc1)c1ccc2[nH]c3c(c2c1)C[C@@]1(O)C2Cc4ccc(O)c5c4[C@@]1(CCN2CC1CC1)[C@H]3O5`, the pKi in experiment [1] is 7.95; at Mu-type opioid receptor [2] it was 7.36; in experiment [3], 7.99. Moreover, the Ke in experiment [4] turned out to be 2.99 nM; in experiment [5] it was 0.73 nM; on Mu-type opioid receptor [6], 4.4 nM.

Consider `O=C(NCCc1ccccc1)c1ccc2[nH]c3c(c2c1)C[C@@]1(O)C2Cc4ccc(O)c5c4[C@@]1(CCN2CC1CC1)[C@H]3O5`, for which the pKi is 8.45 in experiment [1], 7.63 on Mu-type opioid receptor [2] and 8.66 in experiment [3]. In addition, the values for the Ke (in experiment [4]; in experiment [5]; on Mu-type opioid receptor [6]) were 1.21 nM, 0.17 nM and 2.7 nM, respectively.

For `CCCCCCNC(=O)NCCc1ccc2[nH]c3c(c2c1)C[C@@]1(O)C2Cc4ccc(O)c5c4[C@@]1(CCN2CC1CC1)[C@H]3O5`, the pKi was 8.65 in experiment [1], 7.87 at Mu-type opioid receptor [2] and 8.09 in experiment [3]. The Ke came out at 1.04 nM in experiment [4], 1.71 nM in experiment [5] and 1.79 nM on Mu-type opioid receptor [6].

On to `CCCC(=N)NCCc1ccc2[nH]c3c(c2c1)C[C@@]1(O)C2Cc4ccc(O)c5c4[C@@]1(CCN2CC1CC1)[C@H]3O5`, for which the pKi in experiment [1] is 7.56; at Mu-type opioid receptor [2], 7.39; in experiment [3], 9.60. Besides, the Ke is 1.89 nM in experiment [4], 0.18 nM in experiment [5] and 4.21 nM on Mu-type opioid receptor [6].

For `O=C(NCCCCc1ccccc1)c1ccc2[nH]c3c(c2c1)C[C@@]1(O)C2Cc4ccc(O)c5c4[C@@]1(CCN2CC1CC1)[C@H]3O5`, the pKi in experiment [1] is 7.23; at Mu-type opioid receptor [2], 7.43; in experiment [3], 8.21. For the same compound, the Ke in experiment [4] amounted to 5.15 nM; in experiment [5], 0.26 nM; at Mu-type opioid receptor [6] it was 2.78 nM.

As for `CC(=N)NCCc1ccc2[nH]c3c(c2c1)C[C@@]1(O)C2Cc4ccc(O)c5c4[C@@]1(CCN2CC1CC1)[C@H]3O5`, the pKi in experiment [1] is 7.67; on Mu-type opioid receptor [2] it was 7.65; in experiment [3], 9.54. Moreover, the results for the Ke (in experiment [4]; in experiment [5]; on Mu-type opioid receptor [6]) were 1.79 nM, 0.21 nM and 3.78 nM, respectively.

For the compound `CCCCNC(=O)NCCc1ccc2[nH]c3c(c2c1)C[C@@]1(O)C2Cc4ccc(O)c5c4[C@@]1(CCN2CC1CC1)[C@H]3O5`, the pKi in experiment [1] is 8.59; on Mu-type opioid receptor [2], 8.32; in experiment [3], 8.20. The Ke in experiment [4] was 0.53 nM; in experiment [5], 1.52 nM; on Mu-type opioid receptor [6], 1.63 nM.

Take `CC(C)CC(=N)NCCc1ccc2[nH]c3c(c2c1)C[C@@]1(O)C2Cc4ccc(O)c5c4[C@@]1(CCN2CC1CC1)[C@H]3O5`: the pKi in experiment [1] is 7.70; on Mu-type opioid receptor [2], 7.32; in experiment [3] it was 8.86. The Ke was determined as 5.23 nM in experiment [4], 0.32 nM in experiment [5] and 14.7 nM on Mu-type opioid receptor [6].

Consider `CCC/N=C(\N)Cc1ccc2[nH]c3c(c2c1)C[C@@]1(O)C2Cc4ccc(O)c5c4[C@@]1(CCN2CC1CC1)[C@H]3O5`, for which the Ke was determined as 4.41 nM in experiment [4], 0.05 nM in experiment [5] and 3.19 nM on Mu-type opioid receptor [6].

Take `CCCCCNC(=N)Cc1ccc2[nH]c3c(c2c1)C[C@@]1(O)C2Cc4ccc(O)c5c4[C@@]1(CCN2CC1CC1)[C@H]3O5`: the pKi in experiment [1] is 7.77; at Mu-type opioid receptor [2] it was 7.60; in experiment [3], 8.84.

`CCNC(=O)NCCc1ccc2[nH]c3c(c2c1)C[C@@]1(O)C2Cc4ccc(O)c5c4[C@@]1(CCN2CC1CC1)[C@H]3O5`: the pKi in experiment [1] was 8.61; on Mu-type opioid receptor [2], 7.42; in experiment [3] it was 7.91. Further, the Ke is 0.65 nM in experiment [4], 2.47 nM in experiment [5] and 1.6 nM on Mu-type opioid receptor [6].

For `CCCCC/N=C(\N)Cc1ccc2[nH]c3c(c2c1)C[C@@]1(O)C2Cc4ccc(O)c5c4[C@@]1(CCN2CC1CC1)[C@H]3O5`, the Ke in experiment [4] is 3.83 nM; in experiment [5] it was 0.21 nM; on Mu-type opioid receptor [6], 5.61 nM.

In the case of `CCCCCCC/N=C(\N)Cc1ccc2[nH]c3c(c2c1)C[C@@]1(O)C2Cc4ccc(O)c5c4[C@@]1(CCN2CC1CC1)[C@H]3O5`, the Ke in experiment [4] came out at 5.83 nM; in experiment [5], 0.37 nM; on Mu-type opioid receptor [6], 2.04 nM.

One may read the pKi as the Ki on a negative log10 scale, so that one unit is a factor of ten.
